In patent publication US20250000834A1, “COMPOSITIONS AND METHODS FOR TARGETING GPCR FOR THE PREVENTION AND TREATMENT OF PAIN” (Duke University, priority 2021, published 2025):
Non-standard residues stand in square brackets, D forms with d. Residues, ends and D or L forms follow the SMILES beside them.

Legend:
hGPR37L1 [1] = biological target: T1, hGPR37L1 (Homo sapiens, UniProt O60883); experiment: Lipid-coated bead pull-down assay with hGPR37L1-expressing cells; format: binding; design: expressed in transfected cells; host or cells: HEK293 Flp-In cells; details: Western blot
T1 sequence (O60883 26-481): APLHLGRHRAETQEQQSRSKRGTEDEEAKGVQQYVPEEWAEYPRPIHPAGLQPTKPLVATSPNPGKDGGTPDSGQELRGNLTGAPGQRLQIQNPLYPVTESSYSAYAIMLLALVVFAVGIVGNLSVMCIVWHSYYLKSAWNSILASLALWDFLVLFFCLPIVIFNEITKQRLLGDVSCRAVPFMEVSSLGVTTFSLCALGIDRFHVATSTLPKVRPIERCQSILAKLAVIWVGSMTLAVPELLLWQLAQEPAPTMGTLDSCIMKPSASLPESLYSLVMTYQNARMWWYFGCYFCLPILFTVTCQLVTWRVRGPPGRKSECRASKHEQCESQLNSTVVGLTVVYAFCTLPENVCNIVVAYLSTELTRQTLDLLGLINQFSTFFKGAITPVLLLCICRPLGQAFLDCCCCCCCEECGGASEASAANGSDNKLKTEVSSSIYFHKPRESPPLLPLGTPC
Procedure: Lipid pull-down assay: Isolated membrane proteins were pre-adsorbed to uncoated control agarose beads (Vector Laboratories, Burlingame, CA); the unbound fraction was collected and incubated 24 hrs at 4° C. with lipid-coated agarose beads (S. Bang et al., GPR37 regulates macrophage phagocytosis and resolution of inflammatory pain. J Clin Invest 128, 3568-3582 (2018)). After extensive washing, bound proteins were eluted from the lipid-coated beads, suspended in Laemmli buffer containing 2% SDS (w/v) and 0.3-M β-mercaptoethanol (Sigma-Aldrich, St. Louis, MO), and heated 5 min at 95° C. to dissolve proteins before separation on 4-20% polyacrylamide/SDS gels as outlined above. The lysate proteins were detected by western blot.
Western blot: GPR37L1 proteins were isolated from transfected cells, lipid pull-down beads, and mouse DRG. The cells were placed on ice, washed with ice-cold phosphate-buffered saline (PBS), and harvested with ice-cold RIPA buffer (Sigma-Aldrich, St. Louis, MO) with Protease Inhibitor Cocktail Tablet (pH 7.4) (Roche Diagnostics, Indianapolis, IN). The cell lysates were centrifugated for removing insoluble debris and were calculated by BCA assay for detection of protein level, and the supernatant was mixed with 4× Laemmli buffer (Bio-Rad, Hercules, CA) and boiling. Protein samples were […] on 4-15% gradient SDS-PAGE gel (Bio-Rad, Hercules, CA) and blotted on PVDF membrane (Bio-Rad, Hercules, CA). Ponceau S staining was used for the detection of total proteins. The primary antibody was incubated with PBS+1% BSA at 4° C. overnight. We used the following primary antibodies: anti-GPR37L1 antibody (Bioss (Woburn, MA), Rabbit, 1:1000, #bs-15390R); anti-GAPDH antibody (Proteintech (Rosemont, IL), mouse, 1:2000, #60004); and anti-flag antibody (Cell Signaling Technologies (Danvers, MA), Rabbit, 1:1000, #14793). Blots were further incubated with an […] secondary anti-rabbit antibody (Jackson ImmunoResearch Laboratories (West Grove, PA), donkey, 1:5000), developed in ECL solution (Pierce Biotechnology, Appleton, WI)), and visualized in ChemiDoc XRS (Bio-Rad, Hercules, CA). Protein signal intensity was quantified by Image J software (NIH).
Next, a lipid-coated bead pull-down assay with hGPR37L1-expressing cells was used to confirm whether MaR1 would interact with GPR37L1 protein selectively. […] The right molecule size of GPR37L1 (˜50 kDa) was also validated by the anti-FLAG antibody (data not shown; see U.S. Prov. No. 63/270,198, FIG. 3E).

hGPR37L1 [2] = biological target: T1, hGPR37L1; experiment: Beta-arrestin assay (PathHunter hGPR37L1 CHO-K1); format: cell-based; details: hGPR37L1 ChoK1 cells, n=6; for β-arrestin signaling: 0.1 nM to 100 nM; for EC50: read-out: EC50 of β-arrestin response
Procedure: Beta-arrestin assay: To screen for GPR37L1 ligands, the PathHunter® eXpress GPR37L1 CHO-K1 kit was purchased from Eurofins Discoveryone™ (DiscoverX Solutions for Drug Discovery, Fremont, CA; Cat #93-0378E2ACP1M). CHO-K1 cells express human GPR37L1 and were grown in 96-well plates for 48 hours. Lipid compounds were incubated with the ChoK1 cells for 1 hour at 37° C., and GPR37L1 activation was determined by measuring chemiluminescence using the beta-arrestin 2 (β-arrestin) detection kit (DiscoverX Solutions for Drug Discovery, Fremont, CA). The luminescent activity was measured using an Infinite F200 Pro Illuminometer (Tecan Trading AG, Switzerland).
Eight different concentrations of compounds ranging from 0.1 nM to 100 nM were tested.

[3] = system: Kir4.1 potassium channels in SGCs; experiment: Patch-clamp recordings of K+ currents in SGCs of whole-mount DRG; format: cell-based, mouse
Procedure: Patch-clamp recordings in SGCs of whole-mount DRG: Under urethane anesthesia, mice were rapidly euthanized, followed by careful isolation of lumbar DRGs placed in the oxygenated artificial cerebral spinal fluid (aCSF). DRGs were briefly digested (20 min) using an enzymatic mixture consisting of collagenase A (1 mg/mL) and 0.32 mL Trypsin (0.25% original solution). Intact DRG were then incubated in aCSF oxygenated with 95% O2 and 5% CO2 at 34° C. Following incubation, DRG were transferred to a recording chamber. Isolated DRGs were transferred to a recording chamber continuously perfused (˜3 ml/min) with aCSF. SGCs in whole mouse DRGs could be visualized using a 40× water-immersion objective on an Olympus BX51WI microscope (Olympus Corp., Shinjuku, Japan). The round or fusiform-shaped cell bodies of SGCs were small (<10 μm) but visible near the edges of DRG neurons. Patch pipettes (Chase Scientific Glass Inc., Ramsey, MN) were pulled and filled with a pipette solution containing: 126 mM potassium gluconate, 10 mM NaCl, 1 mM MgCl2, 10 mM EGTA, 2 mM Na-ATP, and 0.1 mM Mg-GTP, adjusted to pH 7.3 with KOH. The resistance of pipettes was 10-12 MΩ. A Whole-cell patch-clamp configuration was made on SGCs at room temperature using a Multiclamp 700B amplifier (Axon Instruments, Union City, CA). Under voltage clamp, at a holding potential of −80 mV, inward or outward currents are triggered by voltage steps of −160 to +40 mV, with 20 mV increment in 200 ms (H. Zhang et al., Altered functional properties of satellite glial cells in compressed spinal ganglia. Glia 57, 1588-1599 (2009)). To isolate inwardly rectifying potassium current (Kir), potassium currents from the same cells were recorded in the absence and presence of 100 μM extracellular barium, which blocks the Kir4.1 channel (C. A. Doupnik, et al, The inward rectifier potassium channel family. Curr Opin Neurobiol 5, 268-277 (1995); X. Tong et al., Astrocyte Kir4.1 ion channel deficits contribute to neuronal dysfunction in Huntington's disease model mice. Nat Neurosci 17, 694-703 (2014)). The Kir4.1 currents were obtained by digitally subtracting those currents in the absence and presence of barium.
Kir4.1 potassium channels are the predominant potassium channels in SGCs and are chiefly responsible for the potassium currents in SGCs. Dysregulation of SGC Kir4.1 contributes to the pathogenesis of pain (M. Hanani, D. C. Spray, Emerging importance of satellite glia in nervous system function and dysfunction. Nat Rev Neurosci 21, 485-498 (2020)). SGC K^+ currents were recorded by conducting patch-clamp recordings in SGCs in whole-mount DRG preparation (data not shown; see U.S. Prov. No. 63/270,198, FIG. 7A), collected from WT mice, Gpr37l1^+/+ mice, and Gpr37l1^+/− mutant mice (FIG. 11A parts A-C).

[4] = system: neuron-glia mixed cultures from DRG; experiment: IL-1β release in SGC-neuron co-cultures from DRG (ELISA); format: cell-based, mouse; details: 1 μM for 24 h
Procedure: SGC and neuron co-culture: DRG were collected from wild-type (WT) or knock-out (KO) mice (8 weeks male) and incubated in 1 mg/ml Collagenase/Dispase (Roche Diagnostics, Madison, WI, USA) at 37° C. for 60 min, with agitation at 100 revolutions per minute (RPM) and then followed by incubation in 0.05% trypsin/EDTA for 10 min. The digestion enzymes were prepared in Dulbecco's modified Eagle medium/F12 with GlutaMAX (ThermoFisher, Waltham, MA). After incubation of 0.1% trypsin inhibitor and centrifugation (300 G), the cell pellet was gently triturated in a neurobasal medium containing […]. Dissociated DRG cells were seeded on non-coated culture dishes for 4 hrs. SGC and neurons were included for co-culture by hand-shaking of the culture flasks gently for 5 to 10 min and then resuspended by replacing with a new neurobasal medium. The attached glial-like cells were cultured in the DMEM/F12 medium containing 10% fetal bovine serum and 1% streptomycin/penicillin to promote cell growth and inhibition of differentiation. After 2 to 6 days, the glial-like cells were differentiated by application of the serum-free neural basal medium. […]

Molecule: CC/C=C\C[C@H](O)/C=C/C=C\C=C\C=C\[C@@H](O)[C@@H](O)C/C=C\CCC(=O)O [RvD1]
- GPR37L1 binding in lipid-coated bead pull-down extracts (hGPR37L1 [1]): not binding

Molecule: CC/C=C\C/C=C\C/C=C\C/C=C\C/C=C\C/C=C\CCC(=O)O [DHA, reference compound]
- GPR37L1 binding in lipid-coated bead pull-down extracts (hGPR37L1 [1]): not binding

Molecule: CC[C@H](C)[C@H](NC(=O)[C@H](CCC(=O)O)NC(=O)[C@H](CCC(=O)O)NC(=O)[C@@H](NC(=O)[C@H](C)NC(=O)[C@H](CC(N)=O)NC(=O)[C@H](CC(N)=O)NC(=O)[C@H](CC(=O)O)NC(=O)[C@@H](NC(=O)[C@H](CC(C)C)NC(=O)[C@@H](C)NC(=O)[C@@H](N)[C@@H](C)O)[C@@H](C)CC)[C@@H](C)O)C(=O)N[C@@H](CC(C)C)C(=O)N[C@@H](Cc1ccc(O)cc1)C(=O)O [TX14, reference compound] (H-T[dA]LIDNNATEEILY-OH; N-terminus and C-terminus assumed)
- β-arrestin signaling (hGPR37L1 [2]): 3.71 fold increase
- EC50 (hGPR37L1 [2]): 9.8 nM

Molecule: CC/C=C\C[C@H](O)\C=C/C=C/C=C/[C@H](O)C/C=C\C/C=C\CCC(=O)O [NPD1, Neuroprotectin D1]
- β-arrestin signaling (hGPR37L1 [2]): 1.8 fold increase
- EC50 (hGPR37L1 [2]): 1.74 nM
- GPR37L1 binding in lipid-coated bead pull-down extracts (hGPR37L1 [1]): some weak binding

Molecule: Barium [reference compound]
- effect on total K+ currents in SGCs ([3]; 100 μM): largely blocked

Molecule: CC/C=C\C[C@H](O)[C@H](O)/C=C/C=C/C=C\C=C\[C@@H](O)C/C=C\CCC(=O)O [RvD2]
- GPR37L1 binding in lipid-coated bead pull-down extracts (hGPR37L1 [1]): not binding

Molecule: CC(=O)O[C@H]1C(=O)[C@@]2(C)[C@H]([C@H](OC(=O)c3ccccc3)[C@]3(O)C[C@H](OC(=O)[C@H](O)[C@@H](NC(=O)c4ccccc4)c4ccccc4)C(C)=C1C3(C)C)[C@]1(OC(C)=O)CO[C@@H]1C[C@@H]2O [PTX, paclitaxel, reference compound]
- IL-1β secretion in culture medium [4]: marked increase
- effect on K+ currents in SGCs ([3]; 1 μM, 60 min, WT-DRG): substantial reduction
